Laboratory results published in US7592326B2, “Method for stimulating the immune, inflammatory or neuroprotective response” (priority 2004, dated 2009).
Marks after values point to notes of the source that are not given here.

Legend:
[1] = system: Primary hippocampal cells; assay: Staurosporine-induced cell death in primary hippocampal cultures (CellTiter 96 AQueous Assay); type: cell-based
Method: To assess the role of cyclic dinucleotides in modulating the neurological response, i.e., prevent cell death induced by staurosporine (STS) in primary hippocampal nerve cells, the effects of c-di-GMP on hippocampal cells was analyzed. Primary hippocampal cells were prepared according to previously described methods (Pereira et al., 1993). Briefly, the hippocampi were dissected from the brain of 18-day-old fetal rats. Following enzymatic and mechanical dissociation, cells were plated at a density of 100,000 cells/well in 96-well plates pre-coated with matrigel. At the 7th day after plating, cultures were subjected to one of the following treatments: (i) vehicle (24 h), (ii) STS (100 nM, 22 h), (iii) c-di-GMP (24 h), (iv) c-di-GMP (2 h) followed by c-di-GMP -plus-STS (22 h), (v) c-di-GMP -plus-STS (24 h), or (vi) STS (2 h) followed by c-di-GMP -plus-STS (22 h). At the end of the treatments, cell viability was analyzed using CellTiter 96® AQueous Assay (Promega). The assay involves the spectrophotometric measurement (at 490 nm) of the mitochondrial conversion of a tetrazolium dye into a colorful product. The absorbance of the assay correlates with the number of metabolically active cells.

p38 MAPK = assay: Western blot signaling in human macrophages: p38 MAPK; type: cell-based; conditions: human M-CSF-induced monocyte-derived macrophages
Method: Preparation of macrophages was performed as previously described (Akagawa et al., 1996). Briefly, fully differentiated macrophages from human PBMC were isolated from leukapheresis preparations obtained by the Blood Bank, Clinical Center, National Institutes of Health, Bethesda, Md. The leukocyte-rich preparation was overlaid on Accu-prep in 50 ml tubes and the tubes were centrifuged at 800 × g for 20 min at room temperature. PBMC fractions were collected, washed once with PBS at room temperature and twice with complete medium at 4° C. and resuspended in the same medium. Monocytes were further purified by using iso-osmotic Percoll gradient (Amersham Biosciences). At this stage, the purity of monocytes was higher than 90%. One and half million cells were placed on a 12-well plate in 1.5 ml RPMI1640 containing 50 ng/ml human M-CSF. On day 4, 1 ml of the medium was replaced with 1 ml of fresh medium containing 50 ng human M-CSF. On day 7, non-adherent cells were washed out and adherent cells were used as macrophages.
Western blot analysis of macrophages was performed as previously described (Matsuyama et al., 2003). Briefly, prepared macrophages were starved in RPMI 1640 without FCS for 10 h. […] Proteins were analyzed on 12% polyacrylamide gels by SDS-PAGE and transferred electrophoretically to nitrocellulose membranes at 150 mA for 1 h in a semi-dry system. […]

lung leukocytes = assay: Lung leukocyte accumulation in Klebsiella-infected mice (lung digest, flow cytometry); type: in vivo, Balb/c mice
DCs = assay: Mannose receptor-mediated endocytosis (FITC-dextran uptake); type: cell-based, human; conditions: DCs treated 24 h; FIG. 2
Method: Mannose receptor (MR)-mediated endocytosis was measured as the cellular uptake of FITC-dextran (DX) and quantified by flow cytometry. A total of 2×10^5 cells per sample were incubated in media containing FITC-DX (1 mg/ml) (Mv 40,000). After 15 min of incubation at 37° C. or 4° C. (as negative control), cells were washed four times with cold PBS containing 1% FCS and 0.01% NaN3 and fixed in 1% formaldehyde. The background (cells pulsed at 4° C.) was always subtracted.

[2] = system: Plasmacytoid dendritic cells (pDCs); assay: IFN secretion by human plasmacytoid dendritic cells; type: cell-based; conditions: two independent experiments in duplicate; data not shown
Method: Venipuncture was performed on consenting adults using approved protocols. Plasmacytoid dendritic cells (pDCs) were prepared, as previously described (Schroeder et al., 2005), using a 2-step procedure involving Percoll density centrifugation followed with selection for Blood Dendritic Cell Antigen (BDCA)-4 positive cells (Miltenyi Biotec, Inc., Auburn, Calif.). The capacity of c-di-GMP to induce IFN-alpha from these cells was assessed using cell culture and ELISA protocols also previously described (Schroeder et al., 2005) and was simultaneously compared to the […] produced by pDC in response to cells stimulated with CpG oligodeoxynucleotide (ODN)-2216 (Krieg, 2002).

## Nc1nc(=O)c2ncn([C@@H]3OC4COP(=O)(O)O[C@H]5[C@@H](O)[C@H](n6cnc7c(=O)nc(N)[nH]c76)O[C@@H]5COP(=O)(O)OC4C3O)c2[nH]1 (some centres unmarked) [c-di-GMP, Bis(3′→5′)-cyclic diguanylic acid]
[1]; 0.1-10 μM applied together with or after STS
  number of metabolic active cells vs STS alone: on average higher
[1]; 0.1-10 μM, 2 h before STS 100 nM, FIG. 5
  STS-induced cell death, pre-treatment: prevented the STS-induced cell death
[1]; 24 h
  toxicity to primary hippocampal cultures: not toxic
p38 MAPK
  phosphorylation of p38 MAPK: no phosphorylation
Lung leukocytes; 48 hr post infection, p<0.01
  increase in the number of neutrophils in the lungs of infected mice vs control-pretreated: 3 fold
  total number of lung leukocytes vs control-pretreated: significant increase
Lung leukocytes; i.n. pretreatment 48 and 24 hr prior, lung digests 48 hrs after K. pneumoniae (kp), uninfected 2.7 × 10^7
  Total number lung cells: 4.67 × 10^7*
Lung leukocytes; i.n., data not shown
  trafficking of myeloid or plasmacytoid DC to the lung in response to bacterial challenge: did not alter
Lung leukocytes; lung digests 48 hrs after kp, uninfected 0.33 × 10^5
  αβTcr^+, CD69^+: 3.7 × 10^5*
Lung leukocytes; lung digests 48 hrs after kp, uninfected 0.78 × 10^5
  DX5^+, CD69^+: 5.98 × 10^5**
Lung leukocytes; lung digests 48 hrs after kp, uninfected 0.8 × 10^6
  PMN: 22 × 10^6**
Lung leukocytes; lung digests 48 hrs after kp, uninfected 1.3 × 10^6
  DX5^+ (NK): 3.8 × 10^6
Lung leukocytes; lung digests 48 hrs after kp, uninfected 1.6 × 10^5
  DX5^+, αβγδTcr^+(NK T^+): 6.8 × 10^5*
Lung leukocytes; lung digests 48 hrs after kp, uninfected 2.3 × 10^7
  Mono/Macrophage: 1.9 × 10^7
Lung leukocytes; lung digests 48 hrs after kp, uninfected 2.6 × 10^6
  αβTcr^+: 5.5 × 10^6**
DCs
  uptake of FITC-DX (MR-mediated endocytosis): did not induce any major effect
[2]
  induction of Type I IFN from pDC: negative
